One data set has as its system calcineurin-Crz1 pathway. The experiment in a line: β-Galactosidase CDRE-lacZ yeast reporter assay of Crz1 activation. It is filed as cell-based, S. cerevisiae. As to conditions: Saccharomyces cerevisiae, MnCl2 3 mM activation, strain YAA5; for inhibition at 12.5 µM: read-out: Calcineurin-Crz1 Inhibition (%) ± SD, 12.5 µM. On the procedure: Cultures at OD600= 0.5 ± 0.05 were diluted to OD600= 0.1 ± 0.01, transferred to 96-well microplate and challenged with the highest nontoxic concentration previously determined for each compound to investigate their putative inhibitory effect towards the calcineurin-responsive zinc finger (Crz1) activation. Measurements of β-galactosidase activity driven by the calcineurin-dependent response element (CDRE) regulated lacZ reporter gene allowed the quantitative assessment of the capacity of each compound to inhibit the activation of Crz1. FK506 (Cayman Chemicals, Ann Arbor, MI, USA) was used as a positive control at a final concentration of 12.5 μM. After 90 min of incubation with the respective compounds at 30 °C under orbital shaking, MnCl2 (Merck, Saint Louis, MO, USA) was added at a final concentration of 3 mM. After 90 min of incubation under the same conditions, OD600 of cultures were recorded, 10 μL of cell suspensions were transferred to a new 96-well plate followed by addition of 20 μL Y-PER cell lysis reagent (ThermoFisher Scientific), and the plates were incubated for 20 min at 37 °C without agitation. 240 μL of LacZ buffer (8.5 g/L Na2HPO4 (ROTH), 5.5 g/L NaH2PO4.H2O (Merck), 0.75 g/L KCl (Panreac), 0.246 g/L MgSO4.7H2O (Merck) containing […] o-nitrophenyl β-D-galactopyranoside (ONPG) (Sigma–Aldrich®—Poole, Dorset, UK) was added to each well, and plates were incubated at 30 °C for 2 h. The OD420 and OD550 were monitored using a Biotek Power Wave XS Microplate Spectrophotometer (Biotek® Instruments, Winooski, VT, USA). The results were expressed as Miller units (MU), applying the following equation, where V = volume of culture assayed in mL; t = reaction time in minutes: Miller unit = 1000 × (OD420 − 1.75 × OD550)/(t × V × OD600)(1)

The test system of a further data set is Caco-2 cells. The data set is described as follows: Permeability across Caco-2 monolayer (apical concentration by LC-MS). As to conditions: for % of Decrease in SL Concentration in the Apical Side (t = 4h) / SL conjugates with cysteine in the apical side after 4 h / Concentration of SL (Apical Side) t = 4 h / Concentration of SL (Apical Side) t = 0 h: Caco-2 monolayer; for % of Decrease in SL Concentration in the Apical Side (t = 4h): 10 µM apical, 4 h vs t = 0 h; for Concentration of SL (Apical Side) t = 4 h / Concentration of SL (Apical Side) t = 0 h: SL added at 10 µM apical; for Concentration of SL (Apical Side) t = 4 h: after 4 h; for Concentration of SL (Apical Side) t = 0 h: before experiment. On the procedure: For intestinal permeability assessments of pure SLs, Caco-2 cells were seeded in 12 mm Transwell® inserts (polyester membrane, 0.4 μm pore size, Corning Costar Corp., NY, USA) at a density of 1.0 × 10^5 cell/cm^2. Cells were allowed to grow and differentiate to a confluent monolayer for 21 days postseeding with medium change three times per week. This mimics the apical and basolateral sides of the intestinal mucosa. Before the permeability assay, cells were washed with Hank’s balanced salt solution (HBSS) (Gibco, Life Technologies, Paisley, UK), and pure SLs in HBSS were added to the apical side for 4 h at the noncytotoxic concentration of 10 μM, while the basolateral well was replaced by HBSS. The fluorescent marker fluorescein (2.7 µM) was used as control, having been submitted to the same protocol as the SLs. Cells were submitted to an orbital shaking of 125 rpm (Ohaus, Shanghai, China), and samples from the basolateral side were collected after 15 min, 30 min, and then every hour until the end of the assay, and each time the retrieved volume was replaced by fresh HBSS to maintain sink conditions. After the 4 h assay, both apical and basolateral contents were collected, the cells were washed with PBS followed by culture medium, and culture medium was added to both compartments for 24 h to assess monolayer recovery. All samples were stored at −80 °C until LC-MS analysis.
Transepithelial electrical resistance (TEER) of all monolayers was monitored before and during experiments, and 24 h after the assay, to ensure their integrity using an EVOM™ voltmeter (WPI, Berlin, Germany). Before each experiment, TEER was measured and only monolayers with a TEER value higher than 500 Ω cm^2 were used. Experiments were done in triplicate.
Ultra High Performance Liquid Chromatography (UHPLC) separations were performed with a Dionex U3000 UHPLC coupled with a U3000 Photo Diode Array (PDA) and an LTQ-Orbitrap XL Mass Spectrometry (MS) system (Thermo-Fisher Ltd., Hemel Hempstead, UK). The MS and PDA systems were tuned and calibrated according to the manufacturers recommended procedures. The UHPLC was operated under Xcalibur and Chromeleon software (Thermo-Fisher Ltd. UK). A flow rate of 300 µL/min was applied, the column and guard (Synergi C18 Hydro-RP 80 Ä, 150 × 2.0 mm, 4 µm particle size; Phenomenex Ltd. U.K.) were maintained at a temperature of 30 °C. The solvent system compositions were, A: HPLC grade water (J.T. Baker, Scientific Chemical Supplies Ltd. UK), and solvent B: HPLC grade acetonitrile (J.T. Baker, Scientific Chemical Supplies Ltd. UK), both acidified with 0.1% MS grade formic acid (Ultima, Fisher Scientific, UK). A sample injection volume of 10 µL was employed in partial-loop mode. The gradient program was as follows: hold 2% B 0–2 min, 2–5% B 2–5 min, 5–45% B 5–25 min, 45–100% B 25–35 min, hold 100% B 35–38 min, 100–2% B 38–39 min, hold 2% B 39–44 min. Autosampler syringe and line washes were performed with 2:8 HPLC grade water: acetonitrile (J.T. Baker, Scientific Chemical Supplies Ltd., UK). The HPLC column eluent was first monitored by the U3000 PDA detector where spectra were collected in wavelength/absorbance mode from 200–600 nm. Additionally, three channel set points were employed, Channel A 210 nm, Channel B 260 nm, Channel C 320 nm. Spectra were collected with a filter bandwidth of 8 nm and wavelength step of 1 nm, the scan rate was 5 Hz.
The UHPLC eluent was next transferred to a Thermo LTQ-Orbitrap XL mass spectrometry system operated under Xcalibur (Thermo-Fisher Ltd. UK). For the first two minutes of analysis the UHPLC eluent was diverted to waste, from two to 39 min the eluent was directed to the MS detector, before being diverted back to waste between 39–44 min. Mass spectra were collected in centroid mode with a primary full scan event (m/z 100–1000) at a mass resolution of 30,000 (FWHM defined at m/z 400) within the Fourier Transform (FT) detector.

Another data set deals with yeast cells. The experiment in a line: Yeast cell viability (Cell Titer Blue). It is filed as cell-based, S. cerevisiae. To be noted: Cell Titer Blue assay. On the procedure: Doses of SLs ranging from 12.5 μM to 100 μM for each compound were used in the yeast viability assays. Cultures obtained were diluted to a final OD600 = 0.025 ± 0.0025. The viability assays were performed in 96-wells microplates using 100 µL of diluted culture suspensions and 10 µL of Cell Titer Blue reagent (Promega, WI, USA) according to manufacturer’s instructions for 3 h at 30 °C. Fluorescence was measured in 30 min intervals at emission wavelength 580 nm using the Biotek Power Wave XS Microplate Spectrophotometer (Biotek® Instruments, Winooski, VT, USA).

Where [1] appears, read: Caco-2 apical side, conjugates estimated against calibration curves of parent SLs.
The mark [2] stands for this setting: LC-MS, apical side, t = 4 h, parent SLs added at 10 μM.

Marks after values point to notes of the source that are not given here. Bounds are passed on as bounds.

Turning to `C=C1C(=O)O[C@@H]2[C@H]3C(CO)=CC(=O)C3=C(C)C[C@H](O)[C@@H]12` [Lactucin, lactucin], the inhibition at 12.5 µM with calcineurin-Crz1 pathway is 20 ± 14%. Besides, the “Apical Concentration t = 4 h (µM Equivalents to Parent SL)” value (“Apical Concentration t = 4 h” for short) in the data set on Caco-2 cells (setting [1]) is given as 5.9 ± 0.5 µM Equivalents to Parent SL. In addition, in the data set on Caco-2 cells, the “% of Decrease in SL Concentration in the Apical Side (t = 4h)” value (from here on “% of Decrease in SL Concentration”) is 28.8 *** %, the “Concentration of SL (Apical Side) t = 4 h” value worked out at 5.9 ± 0.5 µM and the “Concentration of SL (Apical Side) t = 0 h” value stood at 8.3 ± 0.7 µM. For the same compound, the “% of Decrease in SL Concentration” value in the data set on Caco-2 cells (listed as lactucin) is recorded as “≈ 30%”. Moreover, the “SL conjugates with cysteine in the apical side after 4 h” value (shortened to “SL conjugates with cysteine”) in the data set on Caco-2 cells (LC-MS) is recorded as “detected”. Further, in the data set on Caco-2 cells (setting [2]), the “Peak Area (Average a.u.)” value is on record as 6.8 × 10^7 a.u.
Take `C=CC[C@@H]1/C=C(\C)C[C@H](C)C[C@H](OC)[C@H]2O[C@@](O)(C(=O)C(=O)N3CCCC[C@H]3C(=O)O[C@H](/C(C)=C/[C@@H]3CC[C@@H](O)[C@H](OC)C3)[C@H](C)[C@@H](O)CC1=O)[C@H](C)C[C@@H]2OC` [FK506, reference compound]: the inhibition at 12.5 µM in the data set with calcineurin-Crz1 pathway turned out to be 67 ± 13%.
In the case of `C/C1=C\[C@H]2OC(=O)C(CSC[C@H](N)C(=O)O)[C@@H]2CC/C(C)=C/CC1` (stereo partly drawn) [Costunolide-Cys], in the data set with Caco-2 cells (setting [1]), the “Apical Concentration t = 4 h” value is 95 ± 8.4 µM Equivalents to Parent SL. In addition, the “Peak Area (Average a.u.)” value with Caco-2 cells (setting [2]) is recorded as 3.1 × 10^8 a.u.
On to `CC1=C2C(=O)C=C(CO)C2C2OC(=O)C(CSCC(N)C(=O)O)C2C(OC(=O)Cc2ccc(O)cc2)C1` (stereo not drawn) [Lactucopicrin-Cys], for which the “Apical Concentration t = 4 h” value in the data set on Caco-2 cells (Caco-2) is listed as 17.8 ± 2.9 µM Equivalents to Parent SL.
`CC1=CCCC2(C)OC2C2OC(=O)C(CSCC(N)C(=O)O)C2CC1` (stereo not drawn) [Parthenolide-Cys]: the “Apical Concentration t = 4 h” value in the data set with Caco-2 cells (Caco-2) was 27 ± 5.9 µM Equivalents to Parent SL.
`C=C1C(=O)O[C@@H]2/C=C(\C)CC/C=C(\C)CC[C@@H]12` [Costunolide]: the “Highest nontoxic concentration in yeast” value with yeast cells is given as 6.25 µM. For the same compound, in the data set with calcineurin-Crz1 pathway (read-out: Calcineurin-Crz1 Inhibition (%) ± SD, 6.25 µM), the inhibition at 6.25 µM is 18 ± 9%. For the same compound, in the data set on Caco-2 cells (setting [1]), the “Apical Concentration t = 4 h” value is recorded as “<LOD”. In the data set on Caco-2 cells, the “% of Decrease in SL Concentration” value was 100 ** %, the “Concentration of SL (Apical Side) t = 4 h” value was “<LOD” and the “Concentration of SL (Apical Side) t = 0 h” value is given as 13.1 ± 1.8 µM. Besides, in the data set with Caco-2 cells (LC-MS), the “SL conjugates with cysteine” value is given as “detected”. Further, the “Concentration of SL (Apical Side) t = 4 h” value with Caco-2 cells (listed as costunolide) is given as “LOQ”.
For `C=C1C(=O)O[C@@H]2[C@H]3C(CO)=CC(=O)C3=C(C)C[C@H](OC(=O)Cc3ccc(O)cc3)[C@@H]12` [Lactucopicrin, lactucopicrin], the inhibition at 12.5 µM with calcineurin-Crz1 pathway was found to be 18 ± 9%. Further, in the data set with Caco-2 cells (setting [1]), the “Apical Concentration t = 4 h” value is reported as “<LOQ”. In the data set on Caco-2 cells, the “% of Decrease in SL Concentration” value is 100 ** %, the “Concentration of SL (Apical Side) t = 4 h” value is given as “<LOQ” and the “Concentration of SL (Apical Side) t = 0 h” value is listed as 12.4 ± 1.3 µM. Besides, the “SL conjugates with cysteine” value in the data set on Caco-2 cells (LC-MS) is “detected”. For the same compound, in the data set on Caco-2 cells (listed as lactucopicrin), the “Concentration of SL (Apical Side) t = 4 h” value is “LOQ”. Moreover, the “Peak Area (Average a.u.)” value in the data set with Caco-2 cells (setting [2]) is given as 1.2 × 10^6 a.u.
Take `CC1=C2C(=O)C=C(CO)C2C2OC(=O)C(CSCC(N)C(=O)O)C2C(O)C1` (stereo not drawn) [Lactucin-Cys]: in the data set with Caco-2 cells (Caco-2), the “Apical Concentration t = 4 h” value is 2.9 ± 3.6 µM Equivalents to Parent SL.
Turning to `C=C1C(=O)O[C@H]2[C@H]1CC/C(C)=C/CC[C@@]1(C)O[C@@H]21` [Parthenolide, parthenolide, reference compound], the inhibition at 12.5 µM in the data set with calcineurin-Crz1 pathway is 20 ± 12%. Besides, the “Apical Concentration t = 4 h” value with Caco-2 cells (setting [1]) was “<LOQ”. Besides, in the data set on Caco-2 cells, the “% of Decrease in SL Concentration” value is 100 ** %, the “Concentration of SL (Apical Side) t = 4 h” value is given as “<LOQ” and the “Concentration of SL (Apical Side) t = 0 h” value is reported as 11.9 ± 2.0 µM. Moreover, in the data set with Caco-2 cells (LC-MS), the “SL conjugates with cysteine” value is on record as “detected”. Also, the “Peak Area (Average a.u.)” value in the data set with Caco-2 cells (human, Caco-2, 4 h, 10 µM) is recorded as 9.2 × 10^5 a.u.
Regarding `CC1=C2C(=O)C=C(CO)C2C2OC(=O)C(C)C2C(OC(=O)Cc2ccc(O)cc2)C1` (stereo not drawn) [11β,13-dihydrolactucopicrin], in the data set with calcineurin-Crz1 pathway, the inhibition at 12.5 µM was 26 ± 11%. For the same compound, in the data set with Caco-2 cells, the “% of Decrease in SL Concentration” value is reported as 29.9 * %, the “Concentration of SL (Apical Side) t = 4 h” value came to 4.9 ± 0.9 µM and the “Concentration of SL (Apical Side) t = 0 h” value stood at 7.0 ± 1.2 µM. The “SL conjugates with cysteine” value with Caco-2 cells (LC-MS) is “not detected”.

Source of the values: paper PMC7699524, “Assessing the Intestinal Permeability and Anti-Inflammatory Potential of Sesquiterpene Lactones from Chicory” (Nutrients, 2020).
